# Results published in patent publication US20100298141A1, “SUBSTITUTED PYRIDINE N-OXIDE HERBICIDES” (E. I. DU PONT DE NEMOURS AND COMPANY, priority 2007, published 2010).
# Legend:
# Experiment in all cases: Test F preemergence test
# Conditions in all cases: scale 0 to 100
# common purslane = type: in vivo, Portulaca oleracea
# Outline: (§1)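 Visual ratings relative to controls, taken after 14 to 21 days in a greenhouse. Test chemicals, formulated in a surfactant-containing non-phytotoxic solvent mixture, were applied preemergence to sown seeds or postemergence to sugarcane plants.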
# dallisgrass = type: in vivo, Paspalum dilatatum
# Outline: as §1
# bermudagrass = type: in vivo, Cynodon dactylon
# Outline: as §1
# Virginia dayflower = type: in vivo, Commelina virginica
# Outline: as §1
# kochia = type: in vivo, Kochia scoparia
# Outline: as §1
# mustard = type: in vivo, Brassica nigra
# Outline: as §1
# broadleaf signalgrass = type: in vivo, Brachiaria platyphylla
# Outline: as §1
# pitted morningglory = type: in vivo, Ipomoea lacunosa
# Outline: as §1
# common ragweed = type: in vivo, Ambrosia elation
# Outline: as §1
# large crabgrass = type: in vivo, Digitaria sanguinalis
# Outline: as §1
# prickly sida = type: in vivo, Sida spinosa
# Outline: as §1
# goosegrass = type: in vivo, Eleusine indica
# Outline: as §1
# quackgrass = type: in vivo, Elytrigia repens
# Outline: as §1
# naked crabgrass = type: in vivo, Digitaria nuda
# Outline: as §1
# itchgrass = type: in vivo, Rottboellia cochinchinensis
# Outline: as §1
# Surinam grass = type: in vivo, Brachiaria decumbens
# Outline: as §1
# common groundsel = type: in vivo, Senecio vulgaris
# Outline: as §1
# guineagrass = type: in vivo, Panicum maximum
# Outline: as §1
# barnyardgrass = type: in vivo, Echinochloa crus-galli
# Outline: as §1
# Italian ryegrass = type: in vivo, Lolium multiflorum
# Outline: as §1
# johnsongrass = type: in vivo, Sorghum halepense
# Outline: as §1
smiles,measurement,setting,value
Cn1nc(C(F)(F)F)c(C[S+]([O-])c2cccc[n+]2[O-])c1Cl (stereo not shown) [Compound 8],Purslane plant response rating,"common purslane; 62 g ai/ha, Preemergence",15
same,Purslane plant response rating,"common purslane; 125 g ai/ha, preemergence",20
same,"Plant response rating, Purslane","common purslane; Preemergence, 16 g ai/ha",0
same,"Plant response rating, Purslane","common purslane; Preemergence, 31 g ai/ha",0
same,Dallisgrass plant response rating,"dallisgrass; 62 g ai/ha, Preemergence",80
same,Dallisgrass plant response rating,"dallisgrass; 125 g ai/ha, preemergence",98
same,"Plant response rating, Dallisgrass","dallisgrass; Preemergence, 16 g ai/ha",0
same,"Plant response rating, Dallisgrass","dallisgrass; Preemergence, 31 g ai/ha",20
same,Bermudagrass plant response rating,"bermudagrass; 62 g ai/ha, Preemergence",75
same,Bermudagrass plant response rating,"bermudagrass; 125 g ai/ha, preemergence",90
same,"Plant response rating, Bermudagrass","bermudagrass; Preemergence, 16 g ai/ha",0
same,"Plant response rating, Bermudagrass","bermudagrass; Preemergence, 31 g ai/ha",15
same,Dayflower plant response rating,"Virginia dayflower; 62 g ai/ha, Preemergence",0
same,Dayflower plant response rating,"Virginia dayflower; 125 g ai/ha, preemergence",75
same,"Plant response rating, Dayflower","Virginia dayflower; Preemergence, 16 g ai/ha",0
same,"Plant response rating, Dayflower","Virginia dayflower; Preemergence, 31 g ai/ha",0
same,Kochia plant response rating,"kochia; 62 g ai/ha, Preemergence",0
same,Kochia plant response rating,"kochia; 125 g ai/ha, preemergence",100
same,"Plant response rating, Kochia","kochia; Preemergence, 16 g ai/ha",0
same,"Plant response rating, Kochia","kochia; Preemergence, 31 g ai/ha",0
same,Black Mustard plant response rating,"mustard; 62 g ai/ha, Preemergence",80
same,Black Mustard plant response rating,"mustard; 125 g ai/ha, preemergence",95
same,"Plant response rating, Black Mustard","mustard; Preemergence, 16 g ai/ha",0
same,"Plant response rating, Black Mustard","mustard; Preemergence, 31 g ai/ha",70
same,Signalgrass plant response rating,"broadleaf signalgrass; 62 g ai/ha, Preemergence",75
same,Signalgrass plant response rating,"broadleaf signalgrass; 125 g ai/ha, preemergence",85
same,"Plant response rating, Signalgrass","broadleaf signalgrass; Preemergence, 31 g ai/ha",65
same,Morningglory plant response rating,"pitted morningglory; 62 g ai/ha, Preemergence",0
same,Morningglory plant response rating,"pitted morningglory; 125 g ai/ha, preemergence",35
same,"Plant response rating, Morningglory","pitted morningglory; Preemergence, 16 g ai/ha",0
same,"Plant response rating, Morningglory","pitted morningglory; Preemergence, 31 g ai/ha",0
same,Ragweed plant response rating,"common ragweed; 62 g ai/ha, Preemergence",35
same,Ragweed plant response rating,"common ragweed; 125 g ai/ha, preemergence",80
same,"Plant response rating, Ragweed","common ragweed; Preemergence, 16 g ai/ha",0
same,"Plant response rating, Ragweed","common ragweed; Preemergence, 31 g ai/ha",35
same,"Crabgrass, Large plant response rating","large crabgrass; 62 g ai/ha, Preemergence",90
same,"Crabgrass, Large plant response rating","large crabgrass; 125 g ai/ha, preemergence",98
same,"Plant response rating, Crabgrass, Large","large crabgrass; Preemergence, 16 g ai/ha",0
same,"Plant response rating, Crabgrass, Large","large crabgrass; Preemergence, 31 g ai/ha",65
same,Prickly Sida plant response rating,"prickly sida; 62 g ai/ha, Preemergence",70
same,Prickly Sida plant response rating,"prickly sida; 125 g ai/ha, preemergence",90
same,"Plant response rating, Prickly Sida","prickly sida; Preemergence, 16 g ai/ha",20
same,"Plant response rating, Prickly Sida","prickly sida; Preemergence, 31 g ai/ha",20
same,Goosegrass plant response rating,"goosegrass; 62 g ai/ha, Preemergence",80
same,Goosegrass plant response rating,"goosegrass; 125 g ai/ha, preemergence",100
same,"Plant response rating, Goosegrass","goosegrass; Preemergence, 16 g ai/ha",0
same,"Plant response rating, Goosegrass","goosegrass; Preemergence, 31 g ai/ha",70
same,Quackgrass plant response rating,"quackgrass; 62 g ai/ha, Preemergence",40
same,Quackgrass plant response rating,"quackgrass; 125 g ai/ha, preemergence",70
same,"Plant response rating, Quackgrass","quackgrass; Preemergence, 16 g ai/ha",0
same,"Plant response rating, Quackgrass","quackgrass; Preemergence, 31 g ai/ha",0
same,"Crabgrass, Naked plant response rating","naked crabgrass; 62 g ai/ha, Preemergence",90
same,"Crabgrass, Naked plant response rating","naked crabgrass; 125 g ai/ha, preemergence",100
same,"Plant response rating, Crabgrass, Naked","naked crabgrass; Preemergence, 16 g ai/ha",60
same,"Plant response rating, Crabgrass, Naked","naked crabgrass; Preemergence, 31 g ai/ha",75
same,Itchgrass plant response rating,"itchgrass; 62 g ai/ha, Preemergence",80
same,Itchgrass plant response rating,"itchgrass; 125 g ai/ha, preemergence",95
same,"Plant response rating, Itchgrass","itchgrass; Preemergence, 16 g ai/ha",0
same,"Plant response rating, Itchgrass","itchgrass; Preemergence, 31 g ai/ha",15
same,Surinam Grass plant response rating,"Surinam grass; 62 g ai/ha, Preemergence",90
same,Surinam Grass plant response rating,"Surinam grass; 125 g ai/ha, preemergence",100
same,"Plant response rating, Surinam Grass","Surinam grass; Preemergence, 31 g ai/ha",70
same,Groundsel plant response rating,"common groundsel; 62 g ai/ha, Preemergence",65
same,Groundsel plant response rating,"common groundsel; 125 g ai/ha, preemergence",80
same,"Plant response rating, Groundsel","common groundsel; Preemergence, 16 g ai/ha",0
same,"Plant response rating, Groundsel","common groundsel; Preemergence, 31 g ai/ha",0
same,Guineagrass plant response rating,"guineagrass; 62 g ai/ha, Preemergence",98
same,Guineagrass plant response rating,"guineagrass; 125 g ai/ha, preemergence",100
same,"Plant response rating, Guineagrass","guineagrass; Preemergence, 16 g ai/ha",35
same,"Plant response rating, Guineagrass","guineagrass; Preemergence, 31 g ai/ha",60
same,Barnyardgrass plant response rating,"barnyardgrass; 62 g ai/ha, Preemergence",95
same,Barnyardgrass plant response rating,"barnyardgrass; 125 g ai/ha, preemergence",100
same,"Plant response rating, Barnyardgrass","barnyardgrass; Preemergence, 16 g ai/ha",70
same,"Plant response rating, Barnyardgrass","barnyardgrass; Preemergence, 31 g ai/ha",80
same,"Ryegrass, Italian plant response rating","Italian ryegrass; 62 g ai/ha, Preemergence",75
same,"Ryegrass, Italian plant response rating","Italian ryegrass; 125 g ai/ha, preemergence",100
same,"Plant response rating, Ryegrass, Italian","Italian ryegrass; Preemergence, 16 g ai/ha",0
same,"Plant response rating, Ryegrass, Italian","Italian ryegrass; Preemergence, 31 g ai/ha",40
same,Johnsongrass plant response rating,"johnsongrass; 62 g ai/ha, Preemergence",95
same,Johnsongrass plant response rating,"johnsongrass; 125 g ai/ha, preemergence",95
same,"Plant response rating, Johnsongrass","johnsongrass; Preemergence, 16 g ai/ha",0
same,"Plant response rating, Johnsongrass","johnsongrass; Preemergence, 31 g ai/ha",75
